Where a name gives a salt, the structure may show the parent alone.
Assays:
[1] = system: formation of HHT (12-hydroxyheptadeca-5,8,10-trienoic acid) in rat's platelet; assay: Inhibitory action for the formation of HHT in rat's platelet; type: cell-based; details: rat platelet rich plasma, read-out: Inhibition rate (%) of HHT formation; for inhibition at 100 µM: 10^-4 M; for inhibition at 10 µM: 10^-5 M; for inhibition at 1 µM: 10^-6 M
Description: Eight ml of blood was gathered from the abdominal aorta of a rat (JcI : Wistar, male, 12-15 weeks age) subjected to abdominal incision under anesthesia by the use of 3.2 % sodium citrate (1 volume of sodium citrate solution to 9 volume of whole blood). The blood was centrifuged at 800 rpm for 10 minutes at room temperature to gather PRP (platelet rich plasma), and the residual blood was further centrifuged at 3000 rpm for 10 minutes to gather PPP (platelet poor plasma). The platelet number in PRP was measured and the PRP was adjusted by diluting with PPP so that the concentration of platelet was one million/μl. To 0.25 ml of the PRP, 125 μg of arachidonic acid and the test compound (the final concentration of 100 μM, 10 μM, 1 μM and 0.1 μM) were added, and the mixture was incubated at 37° C. for 15 minutes. After the reaction, 1.1 ml of ethanol was added, well shaken and centrifuged at 2000 rpm for 10 minutes to separate the supernatant. To 1 ml of the supernatant 1 ml of water was added and subjected to high performance liquid chromatography to determine HHT. The absorption at 240 nm due to HHT was measured by an ultraviolet absorption monitor. […]

5-lipoxygenase = target: T1, 5-lipoxygenase (Rattus norvegicus, UniProt P12527); assay: Inhibitory action on 5-lipoxygenase (5-HETE formation in RBL-1 cells); type: cell-based; details: read-out: Inhibition rate (%) of 5-HETE formation; for inhibition at 1 µM: 10^-6 M; for inhibition at 0.1 µM: 10^-7 M; for inhibition at 0.01 µM: 10^-8 M
T1 construct: endogenous in cells; host or cells: RBL-1 (rat basophilic leukemia cells)
T1 sequence (P12527 1-673): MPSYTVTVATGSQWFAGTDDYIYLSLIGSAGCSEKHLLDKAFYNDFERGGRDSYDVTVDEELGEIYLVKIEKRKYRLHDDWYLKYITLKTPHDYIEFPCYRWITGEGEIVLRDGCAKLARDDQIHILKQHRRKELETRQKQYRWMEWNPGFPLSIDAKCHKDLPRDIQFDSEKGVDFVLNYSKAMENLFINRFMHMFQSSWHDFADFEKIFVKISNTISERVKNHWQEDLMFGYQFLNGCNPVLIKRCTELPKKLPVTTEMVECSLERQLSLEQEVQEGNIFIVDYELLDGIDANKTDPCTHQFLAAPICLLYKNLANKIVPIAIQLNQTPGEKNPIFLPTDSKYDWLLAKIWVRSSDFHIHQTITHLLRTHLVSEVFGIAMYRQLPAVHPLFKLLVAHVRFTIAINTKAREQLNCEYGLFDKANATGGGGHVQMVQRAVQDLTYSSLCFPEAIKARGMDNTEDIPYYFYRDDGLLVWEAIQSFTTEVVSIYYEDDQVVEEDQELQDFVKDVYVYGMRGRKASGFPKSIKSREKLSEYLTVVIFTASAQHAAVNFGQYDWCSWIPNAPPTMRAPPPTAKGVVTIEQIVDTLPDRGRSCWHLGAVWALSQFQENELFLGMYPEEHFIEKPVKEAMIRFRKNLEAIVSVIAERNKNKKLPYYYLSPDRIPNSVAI
Description: RBL-1 cells (rat basophilic leukemia cells) of 10^7 were suspended in 0.9 ml of MCM (mast cell medium). […] The mixture was incubated at 37° C. for 5 minutes. Then, 0.1 ml of MCM containing 50 μg of arachidonic acid and 10 μg of calcium ionophore A-23187 was added and further the mixture was incubated at 37° C. for 15 minutes. After the reaction, 1 ml of ethanol was added, well shaken and subjected to high performance liquid chromatography to determine 5-HETE. The absorption at 240 nm due to 5-HETE was measured by an ultraviolet abosorption monitor. The inhibition rate of 5-HETE formation is represented by (1-b/a)×100, wherein a is the peak height or area in the absence of the compound (I) and b is that in the presence of the compound (I).

[2] = system: Behavior change due to the spinal intrathecal injection of ferrous chloride in mice; assay: Behavior change due to spinal intrathecal injection of ferrous chloride in mice; type: in vivo, Slc:ICR mouse; details: 100 mg/kg p.o., 30 min before i.t. ferrous chloride; for Average score, 100 mg/kg dose: scale 0 (normal) to 5 (death); for Inhibition rate (%): vs saline
Description: In male Slc : ICR mouse of 5 weeks age 10 mice per group were used. […] The evaluation point of behavior change was scored according to the following criterion.
The inhibition rate was shown based on the evaluation point under the above criterion. The test compound was orally administered 30 minutes before the i.t. injection of ferrous chloride.

[3] = system: lipoperoxide formation in rat's brain homogenate; assay: Inhibitory action for lipoperoxide formation in rat's brain homogenate (thiobarbituric acid method); type: biochemical; details: read-out: IC50 (M) × 10^-7
Description: According to the method by Suno et al. (Japan J. Pharmacol., 35, 196(1984) , the concentration of the compound necessary for 50% inhibition of lipoperoxide formation in rat's brain homogenate was determined by examining the lipoperoxide formation using the thiobarbituric acid method. The results obtained are shown in Table 3.

[4] = target: T2, Leukotriene D4 (LTD4) receptor (Cavia porcellus, UniProt Q2NNR5); assay: Leukotriene D4 (LTD4) receptor antagonism ([3H]LTD4, guinea pigs' lung membrane fraction); type: binding, guinea pig; details: read-out: Inhibition rate (%) LTD4 receptor; for inhibition at 1 µM: 10^-6 M; for inhibition at 0.1 µM: 10^-7 M; for inhibition at 0.01 µM: 10^-8 M
T2 construct: guinea pigs' lung membrane fraction; from tissue; host or cells: guinea pig lung membrane fraction
T2 sequence (Q2NNR5 1-340): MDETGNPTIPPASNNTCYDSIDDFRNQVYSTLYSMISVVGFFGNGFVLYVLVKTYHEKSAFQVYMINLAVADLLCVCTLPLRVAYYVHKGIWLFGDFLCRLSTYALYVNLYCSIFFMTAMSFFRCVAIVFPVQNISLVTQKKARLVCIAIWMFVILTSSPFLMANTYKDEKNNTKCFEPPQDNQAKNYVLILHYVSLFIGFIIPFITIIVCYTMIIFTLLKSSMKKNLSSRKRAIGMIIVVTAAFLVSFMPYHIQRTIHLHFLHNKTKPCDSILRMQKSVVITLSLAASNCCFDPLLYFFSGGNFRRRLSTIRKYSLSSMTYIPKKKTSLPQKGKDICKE
Description: According to the method by S. S. Pong , and R. N. DeHaven (Proceedings of the National Academy of Sciences of the United States of America, 80, 7415-7419 (1983) , the leukotriene D4 (LTD4) receptor antagonism was measured by using [^3 H]LTD4 and guinea pigs' lung membrane fraction. The results are shown in Table 5.

inhibition at 1 µM (5-lipoxygenase)	inhibition at 0.1 µM (5-lipoxygenase)	inhibition at 0.01 µM (5-lipoxygenase)	IC50 [3]	Compound	inhibition at 100 µM [1]	inhibition at 10 µM [1]	inhibition at 1 µM [1]	also measured
–	–	–	6e-07 M	COc1ccccc1C=Cc1nc2c(s1)NCCCC2 [Example 12, 2-(2-Methoxystyryl)-5,6,7,8-tetrahydro-4H-thiazolo [5,4-b)azepine oxalate]	–	–	–	–
100%	44%	2%	–	Clc1ccc(C=Cc2nc3c(s2)NCCCC3)cc1Cl [Example 20, 2-(3,4-Dichlorostyryl)-5,6,7,8-tetrahydro-4H-thiazolo[5,4-b]azepine]	96%	43%	18%	–
–	–	–	7e-07 M	C(C=Cc1nc2c(s1)NCCCC2)=Cc1ccccc1 [Example 21, 2-(4-Phenylbutadienyl)-5,6,7,8-tetrahydro-4H-thiazolo[5,4-b]azepine]	–	–	–	Average score, 100 mg/kg dose [2]: 1.7; Inhibition rate (%) [2]: 63.0%
100%	49%	4%	–	O=[N+]([O-])c1ccc(C=Cc2nc3c(s2)NCCCC3)cc1 [Example 22, 2-(4-Nitrostyryl)-5,6,7,8-tetrahydro-4H-thiazolo-[5,4-b]azepine]	–	–	–	–
–	–	–	1.2e-06 M	Fc1ccccc1-c1nc2c(s1)NCCCC2 [Example 23, 2-(2-Fluorophenyl)-5,6,7,8-tetrahydro-4H-thiazolo [5,4-b]azepine]	–	–	–	–
93%	53%	26%	–	O=[N+]([O-])c1ccc(-c2nc3c(s2)NCCCC3)cc1 [Example 24, 2-(4-Nitrophenyl)-5,6,7,8-tetrahydro-4H-thiazolo[5,4-b]azepine]	–	–	–	–
–	–	–	1.2e-06 M	c1ccc(-c2nc3c(s2)NCCCC3)cc1 [Example 26, 2-Phenyl-5,6,7,8-tetrahydro-4H-thiazolo[5,4-b]azepine]	100%	63%	22%	–
95%	56%	9%	7e-07 M	C(=Cc1nc2c(s1)NCCCC2)c1ccccc1.O=C(O)C(=O)O [Example 28, 2-Styryl-5,6,7,8-tetrahydro-4H-thiazolo[5,4-b]azepine oxalate]	–	–	–	Average score, 100 mg/kg dose [2]: 1.1; Inhibition rate (%) [2]: 76.6%

More lines, now with the values behind:

Compound	inhibition at 1 µM (5-lipoxygenase)	inhibition at 0.1 µM (5-lipoxygenase)	inhibition at 0.01 µM (5-lipoxygenase)	IC50 [3]	inhibition at 100 µM [1]	inhibition at 10 µM [1]	inhibition at 1 µM [1]	also measured
COc1ccc(C=Cc2nc3c(s2)NCCCC3)cc1 [Example 2, 2-(4-Methoxystyryl)-5,6,7,8-tetrahydro-4H-thiazolo[5,4-b]azepine]	100%	56%	14%	–	100%	58%	16%	Average score, 100 mg/kg dose [2]: 1.2; Inhibition rate (%) [2]: 74.5%
C(=Cc1nc2c(s1)NCCCC2)c1ccccc1 [Example 3, 2-Styryl-5,6,7,8-tetrahydro-4H-thiazolo[5,4-b]azepine]	–	–	–	–	100%	83%	22%	–
COc1ccc(-c2nc3c(s2)NCCCC3)cc1 [Example 5, 2-(4-Methoxyphenyl)-5,6,7,8-tetrahydro-4H-thiazolo[5,4-b]azepine hydrochloride]	–	–	–	–	–	–	–	Average score, 100 mg/kg dose [2]: 0.9; Inhibition rate (%) [2]: 82.0%
Cc1ccc(C=Cc2nc3c(s2)NCCCC3)cc1 [Example 6, 2-(4-Methylstyryl)-5,6,7,8-tetrahydro-4H-thiazolo[5,4-b]-azepine]	–	–	–	7e-07 M	–	–	–	inhibition at 1 µM [4]: 100%; inhibition at 0.1 µM [4]: 94.3%; inhibition at 0.01 µM [4]: 64.4%
CCOc1ccc(C=Cc2nc3c(s2)NCCCC3)cc1 [Example 7, 2-(4-Ethoxystyryl)-5,6,7,8-tetrahydro-4H-thiazolo[5,4-b]azepine]	–	–	–	8e-07 M	–	–	–	–
CC(C)c1ccc(C=Cc2nc3c(s2)NCCCC3)cc1 [Example 8, 2-(4-Isopropylstyryl)-5,6,7,8-tetrahydro-4H-thiazolo[5,4-b]azepine]	–	–	–	7e-07 M	–	–	–	inhibition at 1 µM [4]: 94.6%; inhibition at 0.1 µM [4]: 92.4%; inhibition at 0.01 µM [4]: 54.8%
COc1ccc(C=CC=Cc2nc3c(s2)NCCCC3)cc1 [Example 9, 2-[4-(4-Methoxyphenyl)butadienyl]-5,6,7,8-tetrahydro-4H-thiazolo [5,4-b]azepine]	100%	79%	12%	7e-07 M	–	–	–	–
C(=Cc1nc2c(s1)NCCCC2)c1ccc2c(c1)OCO2 [Example 13, 2-(3,4-Methylenedioxystyryl)-5,6,7,8-tetrahydro-4H-thiazolo[5,4-b]azepine hydrochloride]	–	–	–	–	–	–	–	inhibition at 1 µM [4]: 100%; inhibition at 0.1 µM [4]: 92.5%; inhibition at 0.01 µM [4]: 61%
COc1ccc(C=Cc2nc3c(s2)NCCCC3)cc1OC.Cl [Example 16, 2-(3,4-Dimethoxystyryl)-5,6,7,8-tetrahydro-4H-thiazolo[5,4-b]azepine hydrochloride]	–	–	–	–	–	–	–	Average score, 100 mg/kg dose [2]: 0.3; Inhibition rate (%) [2]: 94.0%
c1ccc2cc(-c3nc4c(s3)NCCCC4)ccc2c1 [Example 30, 2-(2-Naphthyl)-5,6,7,8-tetrahydro-4H-thiazolo [5,4-b]azepine]	–	–	–	–	–	–	–	inhibition at 1 µM [4]: 100%; inhibition at 0.1 µM [4]: 98.8%; inhibition at 0.01 µM [4]: 76%
c1csc(-c2nc3c(s2)NCCCC3)c1 [Example 31, 2-(2-Thienyl)-5,6,7,8-tetrahydro-4H-thiazolo[5,4-b]azepine]	–	–	–	–	100%	80%	19%	–
CS(=O)(=O)N1CCCCc2nc(-c3ccncc3)sc21 [Example 41, 4-Methanesulfonyl-2-(4-pyridyl)-5,6,7,8-tetrahydro-4H-thiazolo[5,4-b]azepin]	–	–	–	–	87%	63%	23%	–

Reference: patent US5300639A, “Thiazolo [5,4-b]azepine compounds” (Takeda Chemical Industries, Ltd., priority 1992, dated 1994)
